According to patent US20090123925A1, “CANCER THERAPY PROGNOSIS AND TARGET” (priority 2005, published 2009):
Read-outs that look alike come from different tables or passages of the source. Where a SMILES comes first, the peptide text is derived from it. The star is where a group is joined. Cbz = O=C(OCc1ccccc1)*; CH2F = FC*

Columns and labels:
Format in all cases: cell-based, human
[1] = tested on: carboplatin-resistant A549 cells (A549car15, A549car17.5); conditions: for Fold change of IC50 in resistant line vs. A549 parental line: A549car15 (exposed up to 15 μM carboplatin), MTT, 72 hours
From the text: (§1) The A549 cisplatin-, carboplatin- and oxaliplatin-cells were derived from the A549WT cell lines, by maintaining the cells in increasing concentrations of the relevant drug. […] This generated cisplatin-(A549cis1, A549cis2.5, A549cis5, A549cis7.5 and A549cis10), carboplatin-(A549car1, A549car2.5, A549car5, A549car10, A549car15 and A549car17.5) and oxaliplatin-(A549oxa2.5, A549oxa3, A549ox3.5, A549ox5 and A549oxa7.5) resistant A549 cell lines. The cells were exposed to each drug concentration for at least a 4-week period and allowed to recover in drug-free medium for a minimum of 2 weeks, before culture in a higher concentration of drug.
(§2) Cytotoxicity of each platinum drug in each cell line was determined by MTT (3-(4,5-dimethylthiazole-2-yl)-2,5-diphenyl tetrazolium bromide, Sigma) assay. Cells were seeded onto 96-well plates at a density of 2-3×10^3 cells per well and cultured for 24 hours. Then cells were incubated with relevant concentrations of carboplatin, cisplatin or oxaliplatin for 72 hours. After treatment, 30 μl of MTT (5 mg/ml) in PBS was incubated with cells in a 96-well plate for 4 h at 37° C. Subsequently, the medium containing MTT was removed, and 200 μl of DMSO was added to each well and shaken for 15 minutes. Spectrophotometric absorbance of each well was measured at 560 nm and 630 nm on a microplate reader (Bio-Rad, model 3550). GraphPad Prism 2.01 was used to calculate the IC50 of each platinum drug in different cell lines.
(§3) CA-074 Methyl ester (Sigma) was used to inhibit cathepsin B and caspase inhibitor I: (Z-VAD (OMe)-FMK, Calbiochem, UK) to inhibit caspases. Cathepsin L and K selective inhibitors (Cathepsin L inhibitor IV: Z-FF-FMK and Cathepsin K inhibitor I: 1,3-Bis (N-carbobenzoyloxy-L-leucyl) amino acetone, respectively (Calbiochem, UK)) and non-selective broad range cathepsin inhibitor (E-64d; (2S, 3S)-trans-epoxysuccinyl-L-leucylamido-3-methylbutane ethyl ester (Sigma, UK) were used to inhibit cysteine proteases.

[2] = tested on: cisplatin-resistant A549 cells (A549cis7.5, A549cis10); conditions: for Fold change of IC50 in resistant line vs. A549 parental line: A549cis7.5 (exposed up to 7.5 μM cisplatin), MTT, 72 hours
From the text: as §1, §2, §3

[3] = tested on: oxaliplatin-resistant A549 cells (A549ox3, A549ox7.5); conditions: MTT, 72 hours
From the text: as §1, §2, §3

[4] = tested on: A549 wt cells; conditions: wild-type or resistant A549 NSCLC cells; data not shown
Method: The human NSCLC cell line A549 [from ATCC; CCL-185] was maintained in F12-K and RPMI 1640 (supplemented with 10% foetal bovine serum (FBS), 100 U/ml penicillin, and 100 μg/ml streptomycin at 37° C., 5% CO2) in an incubator.
as §2
CA-074 Methyl ester (Sigma) was used to inhibit cathepsin B and caspase inhibitor I: (Z-VAD (OMe)-FMK, Calbiochem, UK) to inhibit caspases. […]

[5] = A549ox7.5 (exposed up to 7.5 μM oxaliplatin)

| Structure (SMILES) | Level of resistance at higher drug concentration ([1]; A549 cells exposed to 17.5 μM carboplatin, compared with 15 μM) | Fold change of IC50 in resistant line vs. A549 parental line [2] | Fold change of IC50 in resistant line vs. A549 parental line [3, 5] | Effect of caspase inhibition on sensitivity to platinum drugs [4] | Fold change of IC50 in resistant line vs. A549 parental line [1] | Fold change of IC50 in resistant line vs. A549 parental line ([3]; A549 cells exposed up to 3 μM oxaliplatin) | Level of resistance at higher drug concentration ([2]; A549 cells exposed to 10 μM cisplatin, compared with 7.5 μM) |
| --- | --- | --- | --- | --- | --- | --- | --- |
| N.N.O=C([O-])C1(C(=O)[O-])CCC1.[Pt+2] [carboplatin] | remained unchanged | 3.4 fold | 1.5 fold | – | – | – | – |
| COC(=O)C[C@H](NC(=O)[C@H](C)NC(=O)[C@@H](NC(=O)OCc1ccccc1)C(C)C)C(=O)CF [caspase inhibitor I, Z-VAD (OMe)-FMK] (Cbz-Val-Ala-Asp(OMe)-CH2F) | – | – | – | did not alter | – | – | – |
| O=C1[O][Pt]2([NH][C@@H]3CCCC[C@H]3[NH]2)[O]C1=O [oxaliplatin] | – | 0.54 fold | 5.3 fold | – | 0.47 fold | 3 fold | – |
| N.N.[Cl][Pt][Cl] [cisplatin] | – | – | 1.8 fold | – | 3.02 fold | – | remained unchanged |
